In assay [1] the test system is phospho-S6RP (Ser 235/236) in RBE cells. Kind of assay: Cellular Proliferation Protocol (cellular phospho-S6RP HTRF), RBE cells. It counts as cell-based. The note with it: 6 hours treatment, RBE or SNU-1079 cells, cell line not given. The method, boiled down: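 RBE cells, 2000/well, seeded 24 h before 6 h compound treatment at 37° C. Lysates were probed with a Eu-cryptate/d2 HTRF antibody sandwich for phospho-S6RP (Ser 235/236), incubated overnight at room temperature. Signal normalised to DMSO control and IC50 fitted to a 4-parameter curve.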
In general terms: In TR-FRET formats the signal depends on donor and acceptor labels being close together.

Assay [2] has as its system RBE cells. Kind of assay: Cell Viability Protocol (CellTiterGlo), RBE cells. It counts as cell-based. The following applies: RBE or SNU-1079 cells, 72 or 120 hour, cell line and time not given. In a few lines:
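RBE cells plated at 1200/well in RPMI 1640 with 10% FBS, incubated 24 h, then dosed with compound from DMSO stocks and incubated 72 or 120 h at 37° C. CellTiterGlo luminescence normalised to DMSO control; IC50 from 4-parameter fit.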

Assay [3] deals with SRC (Homo sapiens, UniProt P12931). Kind of assay: SRC Biochemical Assay Protocol (microfluidic mobility shift assay, FLPeptide4 substrate). In a few lines:
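Recombinant SRC (0.26 nM) preincubated 30 min at RT with compound (0.0017–100 μM) and 1.5 μM FLPeptide4, then 50 μM ATP added; 90 min reaction in HEPES pH 7.4, 10 mM MgCl2, 1% DMSO, EDTA-quenched. Phosphopeptide quantified by microfluidic mobility shift; IC50 from 4-parameter logistic fit.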

Usually IC50 stands for the concentration needed to halve the response being measured.

Sequence of SRC (P12931 whole entry, species assumed): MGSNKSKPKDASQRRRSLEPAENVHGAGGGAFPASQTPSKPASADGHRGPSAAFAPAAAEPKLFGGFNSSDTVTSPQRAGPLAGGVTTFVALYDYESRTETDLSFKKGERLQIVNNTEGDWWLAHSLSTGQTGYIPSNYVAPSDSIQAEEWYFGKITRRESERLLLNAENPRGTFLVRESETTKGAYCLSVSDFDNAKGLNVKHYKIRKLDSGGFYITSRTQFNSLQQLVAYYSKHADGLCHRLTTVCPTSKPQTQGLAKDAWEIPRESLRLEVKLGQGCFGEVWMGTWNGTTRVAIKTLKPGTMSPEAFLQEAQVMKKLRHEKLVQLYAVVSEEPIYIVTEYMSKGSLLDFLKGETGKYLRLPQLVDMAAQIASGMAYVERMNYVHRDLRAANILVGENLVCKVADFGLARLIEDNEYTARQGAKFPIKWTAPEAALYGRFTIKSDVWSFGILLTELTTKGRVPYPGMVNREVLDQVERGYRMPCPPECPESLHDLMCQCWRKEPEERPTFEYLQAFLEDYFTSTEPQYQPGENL

Regarding `C=CC(=O)N1CC[C@H](N2CC(F)(C#Cc3c(-c4ccc(Oc5cccc(C)n5)cc4)c4c(N)ncnc4n3C)C2)[C@@H](O)C1` [II-220, 1-((3S,4S)-4-(3-((4-amino-7-methyl-5-(4-((6-methylpyridin-2-yl)oxy)phenyl)-7H-pyrrolo[2,3-d]pyrimidin-6-yl)ethynyl)-3-fluoroazetidin-1-yl)-3-hydroxypiperidin-1-yl)prop-2-en-1-one], the IC50 in assay [1] (6 h), in assay [2] and in assay [3] was 10 to 1000 nM each time.
`C=CC(=O)N1C[C@@H]2[C@@H](C#Cc3c(-c4ccc(Oc5cccc(C)n5)cc4OC)c4c(N)ncnc4n3CCOC)[C@@H]2C1` [II-276]: the IC50 in assay [1] (6 h), in assay [2] and in assay [3] was 10 to 1000 nM each time.
As for `CC(C)n1c(C#C[C@@H]2[C@H]3CN(C(=O)/C=C/CN(C)C)C[C@@H]23)c(-c2ccc(F)c3c2OCO3)c2c(N)ncnc21` [II-293], the IC50 in assay [1] (6 h), in assay [2] and in assay [3] was ≤ 10 nM in each case.
Take `C=CC(=O)N1C[C@@H]2[C@@H](C#Cc3c(-c4ccc(Oc5cccc(C)n5)cc4OC)c4c(N)ncnc4n3C)[C@@H]2C1` [II-42]: the IC50 in assay [1], in assay [2] and in assay [3] was 10 to 1000 nM throughout.
On to `C=CC(=O)N1CCC(C#Cc2c(-c3ccc(Oc4ccccc4)cc3)c3c(N)ncnc3n2CCN2CCN(C)CC2)CC1` [Example I-52], for which the IC50 in assay [1] (6 h), in assay [2] and in assay [3] was 10 to 1000 nM throughout.
As to `C=CC(=O)N1CCN([C@H]2C[C@@H](C#Cc3c(-c4ccc(Oc5ccccc5)cc4)c4c(N)ncnc4n3C)C2)C(=O)C1` [II-214, 4-acryloyl-1-((1s,3s)-3-((4-amino-7-methyl-5-(4-phenoxyphenyl)-7H-pyrrolo[2,3-d]pyrimidin-6-yl)ethynyl)cyclobutyl) piperazin-2-one], the half-maximal inhibitory concentration (IC50) in assay [1] (6 h), in assay [2] and in assay [3] was ≤ 10 nM in each case.
In the case of `C=CC(=O)N1C[C@@H]2[C@@H](C#Cc3c(-c4ccc(Oc5cccc(C)n5)cc4OC)c4c(N)ncnc4n3CS(C)(=O)=O)[C@@H]2C1` [II-50], the IC50 was 1000 to 10000 nM in assay [1], 1000 to 10000 nM in assay [2] and 10 to 1000 nM in assay [3].
Take `C=CC(=O)N1CC2(CC(C#Cc3c(-c4ccc(Oc5ccccc5)cc4)c4c(N)ncnc4n3C(C)C)C2)C1` [Example I-19]: the IC50 in assay [1] (6 h), in assay [2] and in assay [3] was ≤ 10 nM in each case.
`C=CC(=O)N1CC2C(C#Cc3c(-c4cccc5c4OCO5)c4c(N)ncnc4n3C)C2C1` (stereo not drawn) [II-126]: the 50% inhibitory concentration (IC50) in assay [1] was 10 to 1000 nM; in assay [2] it was 10 to 1000 nM; in assay [3], ≤ 10 nM.
For the compound `C=CC(=O)N1CCC(N2CC(C#Cc3c(-c4ccc(Oc5ccccc5)cc4)c4c(N)ncnc4n3[C@H](C)CO)C2)CC1` [II-168, (R)-1-(4-(3-((4-amino-7-(1-hydroxypropan-2-yl)-5-(4-phenoxyphenyl)-7H-pyrrolo[2,3-d]pyrimidin-6-yl)ethynyl)azetidin-1-yl)piperidin-1-yl)prop-2-en-1-one], the IC50 in assay [1] (6 h) is ≤ 10 nM; in assay [2], ≤ 10 nM; in assay [3] it was 10 to 1000 nM.
Consider `C=CC(=O)N1CCC(C#Cc2c(-c3ccc(Nc4ccccc4)cc3)c3c(N)ncnc3n2C(C)C)CC1` [Example I-7], for which the IC50 in assay [1] (6 h) is ≤ 10 nM; in assay [2] it was 10 to 1000 nM; in assay [3], 10 to 1000 nM.
As for `C=CC(=O)N1CCC(N2CC(C#Cc3c(-c4ccc(Oc5ccccc5)cc4)c4c(N)ncnc4n3C)C2)C[C@@H]1COC` (stereo partly drawn) [II-186, 1-((2R)-4-(3-((4-amino-7-methyl-5-(4-phenoxyphenyl)-7H-pyrrolo[2,3-d]pyrimidin-6-yl)ethynyl)azetidin-1-yl)-2-(methoxymethyl)piperidin-1-yl)prop-2-en-1-one], the IC50 in assay [1] (6 h), in assay [2] and in assay [3] was ≤ 10 nM in each case.
Regarding `C=CC(=O)N1CCC(N2CC(C#Cc3c(-c4ccc(Cl)c(C)c4)c4c(N)ncnc4n3C(C)C)C2)CC1` [II-114], the figures for the IC50 in assay [1], in assay [2] and in assay [3] were 10 to 1000 nM, 10 to 1000 nM and ≤ 10 nM, respectively.
As for `C=CC(=O)N1CCC(N2CC(C#Cc3c(-c4ccc(Cl)c(O)c4)c4c(N)ncnc4n3C)C2)CC1` [II-95], the values for the IC50 in assay [1], in assay [2] and in assay [3] were 10 to 1000 nM, 10 to 1000 nM and ≤ 10 nM, respectively.
`C=CC(=O)N1CCC(N2CC(C#Cc3c(-c4ccc(Br)c(OC)c4)c4c(N)ncnc4n3C(C)C)C2)CC1` [II-161, 1-(4-(3-((4-amino-5-(4-bromo-3-methoxyphenyl)-7-isopropyl-7H-pyrrolo[2,3-d]pyrimidin-6-yl)ethynyl)azetidin-1-yl)piperidin-1-yl)prop-2-en-1-one]: the IC50 in assay [1] (6 h) was 10 to 1000 nM; in assay [2], 10 to 1000 nM; in assay [3], ≤ 10 nM.
With `C=CC(=O)N1CCC(N2CC(C#Cc3c(-c4cccc5c4OCO5)c4c(N)ncnc4n3C(C)C)C2)C(O)C1` (stereo not drawn) [II-108], the IC50 in assay [1], in assay [2] and in assay [3] was ≤ 10 nM throughout.
On to `C=CC(=O)N1CCC(N2CC(F)(C#Cc3c(-c4ccc(Oc5cccc(C)n5)cc4)c4c(N)ncnc4n3C)C2)C[C@H]1CO` (stereo partly drawn) [II-204, 1-((2S)-4-(3-((4-amino-7-methyl-5-(4-((6-methylpyridin-2-yl)oxy)phenyl)-7H-pyrrolo[2,3-d]pyrimidin-6-yl)ethynyl)-3-fluoroazetidin-1-yl)-2-(hydroxymethyl)piperidin-1-yl)prop-2-en-1-one], for which the IC50 in assay [1] (6 h), in assay [2] and in assay [3] was 10 to 1000 nM each time.
As for `C=CC(=O)N1CC[C@@H](N2CC(C#Cc3c(-c4cccc(OC)n4)c4c(N)ncnc4n3C)C2)[C@@H](O)C1` [II-61], the values for the IC50 in assay [1], in assay [2] and in assay [3] were 10 to 1000 nM, 1000 to 10000 nM and 10 to 1000 nM, respectively.
For the compound `C=CC(=O)N1CC[C@@H](N2CC(C#Cc3c(-c4ccc(C5CC5)cc4)c4c(N)ncnc4n3C)C2)[C@@H](O)C1` [II-69], the IC50 in assay [1], in assay [2] and in assay [3] was 10 to 1000 nM each time.
For `C=CC(=O)N[C@H](CO)C(=O)N1CCC(C#Cc2c(-c3ccc(Oc4ccccc4)cc3)c3c(N)ncnc3n2C)CC1` [II-197], the IC50 in assay [1] (6 h), in assay [2] and in assay [3] was 10 to 1000 nM in each case.
For the compound `C=CC(=O)N1CCN(C2CC(C#Cc3c(-c4ccc(Oc5ccccc5)cc4)c4c(N)ncnc4n3C)C2)CC1` (stereo not drawn) [II-167, 1-(4-(3-((4-amino-7-methyl-5-(4-phenoxyphenyl)-7H-pyrrolo[2,3-d]pyrimidin-6-yl)ethynyl)cyclobutyl)piperazin-1-yl)prop-2-en-1-one], the IC50 in assay [1] (6 h) was 10 to 1000 nM; in assay [2], ≤ 10 nM; in assay [3], 10 to 1000 nM.
As to `C=CC(=O)N1CCC(N2CC(C#Cc3c(-c4ccc(OC)c(OC)c4)c4c(N)ncnc4n3C)C2)CC1` [II-106], the 50% inhibitory concentration (IC50) in assay [1], in assay [2] and in assay [3] was 10 to 1000 nM in each case.
Regarding `C=CC(=O)N1C[C@@H]2[C@@H](C#Cc3c(-c4c(Cl)ccc5c4OCO5)c4c(N)ncnc4n3C)[C@@H]2C1` [II-38], the IC50 in assay [1], in assay [2] and in assay [3] was 10 to 1000 nM each time.
On to `C=CC(=O)N1CC[C@H](N2CC(C#Cc3c(-c4ccc(Oc5ccccc5)c(OC)c4)c4c(N)ncnc4n3C)C2)[C@H](O)C1` [II-247, 1-((3R,4S)-4-(3-((4-amino-5-(3-methoxy-4-phenoxyphenyl)-7-methyl-7H-pyrrolo[2,3-d]pyrimidin-6-yl)ethynyl)azetidin-1-yl)-3-hydroxypiperidin-1-yl)prop-2-en-1-one], for which the IC50 in assay [1] (6 h), in assay [2] and in assay [3] was ≤ 10 nM each time.
With `COCCn1c(C#CC2CN(C(=O)/C=C/CN(C)C)C2)c(-c2ccc(Oc3ccccc3)cc2)c2c(N)ncnc21` [II-191, (E)-1-(3-((4-amino-7-(2-methoxyethyl)-5-(4-phenoxyphenyl)-7H-pyrrolo[2,3-d]pyrimidin-6-yl)ethynyl)azetidin-1-yl)-4-(dimethylamino) but-2-en-1-one], the IC50 in assay [1] (6 h), in assay [2] and in assay [3] was 10 to 1000 nM throughout.
Regarding `C=CC(=O)N1CCC(N2CC(F)(C#Cc3c(-c4ccc(Oc5cccc(C)n5)cc4)c4c(N)ncnc4n3C)C2)CC1` [II-203, 1-(4-[3-[2-(4-amino-7-methyl-5-[4-[(6-methylpyridin-2-yl)oxy]phenyl]-7H-pyrrolo [2,3-d]pyrimidin-6-yl)ethynyl]-3-fluoroazetidin-1-yl]piperidin-1-yl)prop-2-en-1-one], the IC50 in assay [1] (6 h), in assay [2] and in assay [3] was 10 to 1000 nM throughout.
As for `C=CC(=O)N1CCC(N2CC(C#Cc3c(-c4cc(OC)c(Cl)c(OC)c4)c4c(N)ncnc4n3C)C2)CC1` [II-91], the IC50 in assay [1], in assay [2] and in assay [3] was 10 to 1000 nM each time.
On to `C=CC(=O)N1CCC(N2CC(C#Cc3c(-c4ccc(Oc5ccccc5)c(OC(F)F)c4)c4c(N)ncnc4n3C)C2)CC1` [II-35, 1-(4-(3-((4-amino-5-(3-(difluoromethoxy)-4-phenoxyphenyl)-7-methyl-7H-pyrrolo[2,3-d]pyrimidin-6-yl)ethynyl)azetidin-1-yl)piperidin-1-yl)prop-2-en-1-one], for which the IC50 in assay [1] (6 h), in assay [2] and in assay [3] was 10 to 1000 nM each time.

The values above are taken from patent publication US20250154154A1 (Relay Binney Street, 2nd Floor, priority 2020, published 2025).
